Test results: PubChem BioAssay (NCI)
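Dose response: 5 concentrations. Exposure: 48 h. Format: 96-well plates. Endpoint: linear interpolation; highest concentration if not reached. TGI: total growth inhibition.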

What was measured:
Assay in all cases: inhibition of tumour cell growth, NCI panel, 48 h
[1] = tested on: A498 renal
[2] = tested on: ACHN renal
[3] = tested on: COLO 205 colon
[4] = tested on: HOP-62 NSCLC
[5] = tested on: LOX IMVI melanoma
[6] = tested on: M14 melanoma
[7] = tested on: MALME-3M melanoma
[8] = tested on: MCF7 breast
[9] = tested on: MDA-N
[10] = tested on: NCI-H226 lung
[11] = tested on: NCI-H460 lung
[12] = tested on: OVCAR-5 ovarian
[13] = tested on: PC-3 prostate
[14] = tested on: SK-MEL-28 melanoma
[15] = tested on: SK-OV-3 ovarian
[16] = tested on: SN12C renal
[17] = tested on: SW-620 colon
[18] = tested on: TK-10 renal
[19] = tested on: U251 CNS
[20] = tested on: UACC-257 melanoma

## CNCCC=C1c2ccccc2CCc2ccccc21
[1]
  TGI: 28.9 µM
[2]
  TGI: 30.2 µM
[3]
  TGI: 21 µM
[4]
  TGI: 28.2 µM
[5]
  TGI: 26.7 µM
[6]
  TGI: 14.7 µM
[7]
  TGI: 30.3 µM
[8]
  TGI: 30.4 µM
[9]
  TGI: 29 µM
[10]
  TGI: 38 µM
[11]
  TGI: 28.5 µM
[12]
  TGI: 30.2 µM
[13]
  TGI: 27.4 µM
[14]
  TGI: 27 µM
[15]
  TGI: 25.2 µM
[16]
  TGI: 29.2 µM
[17]
  TGI: 34.6 µM
[18]
  TGI: 28 µM
[19]
  TGI: 27.6 µM
[20]
  TGI: 19.9 µM

## Cn1c2ccccc2c(=O)c2[nH]c3ccccc3c21
[1]
  TGI: > 100 µM
[2]
  TGI: > 100 µM
[3]
  TGI: > 100 µM
[4]
  TGI: > 100 µM
[5]
  TGI: > 100 µM
[6]
  TGI: > 100 µM
[7]
  TGI: > 100 µM
[8]
  TGI: > 100 µM
[9]
  TGI: > 100 µM
[10]
  TGI: > 100 µM
[11]
  TGI: > 100 µM
[12]
  TGI: > 100 µM
[13]
  TGI: > 100 µM
[14]
  TGI: 59.5 µM
[15]
  TGI: > 100 µM
[16]
  TGI: > 100 µM
[17]
  TGI: > 100 µM
[18]
  TGI: > 100 µM
[19]
  TGI: > 100 µM
[20]
  TGI: > 100 µM
